Measurements: US9204640B2, “2-acyloxy-pyrrolin-4-ones” (BAYER INTELLECTUAL PROPERTY GMBH, priority 2011, dated 2015)

How the values were obtained:
Assay type in all cases: in vivo
Avena sativa = assay: Herbicidal post-emergence action, AVESA; conditions: Avena sativa, post-emergence
Source text: (§1) • Seeds of monocotyledonous and dicotyledonous weed plants and crop plants are placed in wood-fiber pots in sandy loam and covered with soil. The test compounds, formulated in the form of wettable powders (WP) or emulsion concentrates (EC), are then, as an aqueous suspension with a water application rate of 600-800 l/ha (converted), with 0.1-0.2% of wetting agent added, applied at various dosages to the surface of the covering soil. • After the treatment, the pots are placed in a greenhouse and kept under good growth conditions for the test plants. […] Herbicidal Post-Emergence Action (Post) • Seeds of monocotyledonous and dicotyledonous weed and crop plants are placed in sandy loam in wood-fiber pots, covered with soil and cultivated in a greenhouse under good growth conditions. 2-3 weeks (stages 10-13 according to the BBCH scale) after sowing, the test plants are treated at a height of 5-10 cm. The test compounds, formulated as wettable powders (WP) or emulsion concentrates (EC), are then, with a water application rate of 600-800 l/ha (converted), with 0.1-0.2% of wetting agent added, sprayed at various dosages onto the green parts of the plants. […]

Amaranthus retroflexus = assay: Herbicidal post-emergence action, AMARE; conditions: Amaranthus retroflexus, post-emergence
Source text: as §1

Sinapis alba = assay: Herbicidal post-emergence action, SINAL; conditions: Sinapis alba, post-emergence
Source text: as §1

Lolium multiflorum [1] = assay: Herbicidal post-emergence action, LOLMU
Procedure: (§2) 2. Herbicidal Post-Emergence Action
(§3) • Seeds of monocotyledonous and dicotyledonous weed and crop plants are placed in sandy loam in wood-fiber pots, covered with soil and cultivated in a greenhouse under good growth conditions. 2 to 3 weeks after sowing, the test plants are treated at the one-leaf stage. The test compounds, formulated as wettable powders (WP), are then, with a water application rate of 600 l/ha (converted), with 0.2% of wetting agent added, sprayed at various dosages onto the green parts of the plants. After the test plants have been kept in the greenhouse under optimum growth conditions for about 3 weeks, the activity of the preparations is rated visually in comparison to untreated controls (herbicidal activity in percent: 100% activity=the plants have died, 0% activity=like control plants). • In addition to the compounds mentioned above, the following compounds show an activity of 90-100% against Alopecurus myosuroides, Avena fatua, Digitaria sanguinalis, Echinocloa crus-galli, Lolium multiflorum, Setaria viridis and Sorghum halapense when applied by the post-emergence method at 320 g/ha: I-a-2, I-a-4, I-a-5, I-a-7, I-a-9, I-a-10, I-a-11, I-a-12, I-a-13, I-a-15. • In addition to the compounds mentioned above, the following compounds show an activity of 90-100% against Alopecurus myosuroides, Avena fatua, Echinocloa crus-galli, Lolium multiflorum and Setaria viridis when applied by the post-emergence method at 80 g/ha: I-a-1, I-b-2.
(§4) • Seeds of monocotyledonous and dicotyledonous weed plants and crop plants are placed in wood-fiber pots in sandy loam and covered with soil. The test compounds, formulated in the form of wettable powders (WP) or emulsion concentrates (EC), are then, as an aqueous suspension with a water application rate of 600-800 l/ha (converted), with 0.1-0.2% of wetting agent added, applied at various dosages to the surface of the covering soil. • After the treatment, the pots are placed in a greenhouse and kept under good growth conditions for the test plants. […] Herbicidal Post-Emergence Action (Post) • Seeds of monocotyledonous and dicotyledonous weed and crop plants are placed in sandy loam in wood-fiber pots, covered with soil and cultivated in a greenhouse under good growth conditions. 2-3 weeks (stages 10-13 according to the BBCH scale) after sowing, the test plants are treated at a height of 5-10 cm. The test compounds, formulated as wettable powders (WP) or emulsion concentrates (EC), are then, with a water application rate of 600-800 l/ha (converted), with 0.1-0.2% of wetting agent added, sprayed at various dosages onto the green parts of the plants.
(§5) AVEFA: Avena fatua LOLMU: Lolium multiflorum SETVI: Setaria viridis CHEAL: Chenopodium album VIOTR: Viola tricolor VERPE: Veronica persica ORYSA: Oryza sativa TRZAS: Triticum aestivum ZEAMX: Zea mays ALOMY: Alopecurus myosuroides DIGSA: Digitaria sanguinalis ECHCG: Echinocloa crus-galli SORHA: Sorghum halepense AVESA: Avena sativa AMARE: Amaranthus retroflexus SINAL: Sinapis alba STEME: Stellaria media

Stellaria media = assay: Herbicidal post-emergence action, STEME; conditions: Stellaria media, post-emergence
Source text: as §1

Setaria viridis [2] = assay: Herbicidal post-emergence action, SETVI
Procedure: as §2, §3, §4, §5

Spodoptera frugiperda = Spodoptera frugiperda test (SPODFR spray treatment); conditions: Spodoptera frugiperda, 168 h; 500 g/ha; 7dat
Procedure: Spodoptera Frugiperda Test (SPODFR Spray Treatment) [table] To produce a suitable preparation of active compound, 1 part by weight of active compound is mixed with the stated amount of solvent and emulsifier, and the concentrate is diluted with emulsifier-containing water to the desired concentration. Discs of corn leaves (Zea mays) are sprayed with an active compound preparation of the desired concentration and, after drying, populated with caterpillars of the armyworm (Spodoptera frugiperda). After 7 days, the effect in % is determined. 100% means that all caterpillars have been killed; 0% means that none of the caterpillars have been killed. Spodoptera Frugiperda Test (SPODFR Spray Treatment) To produce a suitable preparation of active compound, 1 part by weight of active compound is mixed with the stated amount of solvent and emulsifier, and the concentrate is diluted with emulsifier-containing water to the desired concentration. Discs of corn leaves (Zea mays) are sprayed with an active compound preparation of the desired concentration and, after drying, populated with caterpillars of the armyworm (Spodoptera frugiperda). After the desired period of time, the activity in % is determined. 100% means that all caterpillars have been killed; 0% means that none of the caterpillars have been killed.

Liriomyza trifolii = Liriomyza trifolii spray test (LIRITR); conditions: Liriomyza trifolii, 168 h, 7dat, read-out: % Activity LIRITRI
Procedure: Liriomyza Trifolii-Spray Test ([…]) To produce a suitable preparation of active compound, 1 part by weight of active compound is mixed with the stated amount of solvent and emulsifier, and the concentrate is diluted with emulsifier-containing water to the desired concentration. If the addition of ammonium salts or/and penetrants is required, these are in each case added in a concentration of 1000 ppm to the solution of the preparations. Discs of bean leaves (Phaseolus vulgaris) which are infested by all stages of the leaf-mining fly (Liriomyza trifolii) are sprayed with an active compound preparation of the desired concentration. After the desired period of time, the activity in % is determined. 100% means that all of the leaf-mining flies have been killed; 0% means that none of the leaf-mining flies have been killed.

Tetranychus urticae = assay: Tetranychus test (TETRUR spray treatment; OP-resistant in Example 10); conditions: Tetranychus urticae, 120 h; 20 g/ha; 5dat; OP-resistant
Procedure: Tetranychus Test (TETRUR Spray Treatment)
To produce a suitable preparation of active compound, 1 part by weight of active compound is mixed with the stated amount of solvent and emulsifier, and the concentrate is diluted with emulsifier-containing water to the desired concentration. Discs of bean leaves (Phaseolus vulgaris) which are infested by all stages of the greenhouse red spider mite (Tetranychus urticae) are sprayed with an active compound preparation of the desired concentration.
After 5 days, the effect in % is determined. 100% means that all of the spider mites have been killed; 0% means that none of the spider mites have been killed.
Tetranychus Test, OP-Resistant (TETRUR Spray Treatment)
To produce a suitable preparation of active compound, 1 part by weight of active compound is mixed with the stated amount of solvent and emulsifier, and the concentrate is diluted with emulsifier-containing water to the desired concentration.
Discs of bean leaves (Phaseolus vulgaris) which are infested by all stages of the greenhouse red spider mite (Tetranychus urticae) are sprayed with an active compound preparation of the desired concentration.
After the desired period of time, the activity in % is determined. 100% means that all of the spider mites have been killed; 0% means that none of the spider mites have been killed.

Bemisia tabaci = Bemisia tabaci spray test (BEMITA); conditions: Bemisia tabaci, 168 h, 7dat
Procedure: Bemisia Tabaci-Spray Test ([…]) To produce a suitable preparation of active compound, 1 part by weight of active compound is mixed with the stated amount of solvent and emulsifier, and the concentrate is diluted with emulsifier-containing water to the desired concentration. Discs of cotton leaves (Gossypium hirsutum) which are infested by all stages of the whitefly (Bemisia tabaci) are sprayed with an active compound preparation of the desired concentration. After the desired period of time, the activity in % is determined. 100% means that all the whiteflies have been killed; 0% means that none of the whiteflies have been killed.

Zea mays = assay: Herbicidal post-emergence action, ZEAMX; conditions: 80 g/ha
Source text: as §4, §5

Setaria viridis [3] = assay: Herbicidal pre-emergence action, SETVI; conditions: 320 g/ha
Source text: (§6) 1. Herbicidal Pre-Emergence Action
(§7) • Seeds of monocotyledonous and dicotyledonous weed plants and crop plants are placed in wood-fiber pots in sandy loam and covered with soil. The test compounds, formulated in the form of wettable powders (WP), are then, as an aqueous suspension with a water application rate of 600 l/ha (converted), with 0.2% of wetting agent added, applied at various dosages to the surface of the covering soil. • After the treatment, the pots are placed in a greenhouse and kept under good growth conditions for the test plants. The visual assessment of the damage to the test plants is carried out after a trial period of about 3 weeks by comparison with untreated controls (herbicidal activity in percent: 100% activity=the plants have died, 0% activity=like control plants). • In addition to the compounds mentioned above, the following compounds show an activity of 90-100% against Alopecurus myosuroides, Digitaria sanguinalis, Echinocloa crus-galli, Lolium multiflorum, Setaria viridis and Sorghum halapense when applied by the pre-emergence method at 320 g/ha of a.i.: I-a-2, I-a-10, I-a-11, I-a-12.
(§8) 1. Herbicidal Pre-Emergence Action (Pre)
as §4, §5

Alopecurus myosuroides = assay: Herbicidal post-emergence action, ALOMY; conditions: 80 g/ha
Procedure: as §2, §3, §4, §5

Avena fatua [4] = assay: Herbicidal post-emergence action, AVEFA; conditions: 80 g/ha
Procedure: as §2, §3, §4, §5

Digitaria sanguinalis = assay: Herbicidal post-emergence action, DIGSA; conditions: 80 g/ha
Procedure: as §2, §3, §4, §5

Chenopodium album = assay: Herbicidal pre-emergence action, CHEAL; conditions: 320 g/ha
Source text: as §8, §1

Viola tricolor = assay: Herbicidal pre-emergence action, VIOTR; conditions: 320 g/ha
Source text: as §8, §1

Echinocloa crus-galli = assay: Herbicidal post-emergence action, ECHCG; conditions: 80 g/ha
Procedure: as §2, §3, §4, §5

Oryza sativa = assay: Herbicidal post-emergence action, ORYSA; conditions: 80 g/ha
Source text: as §4, §5

Veronica persica [5] = assay: Herbicidal pre-emergence action, VERPE; conditions: 320 g/ha
Source text: as §8, §1

Avena fatua [6] = assay: Herbicidal pre-emergence action, AVEFA; conditions: 320 g/ha
Source text: as §6, §7, §8
(§9) • Seeds of monocotyledonous and dicotyledonous weed plants and crop plants are placed in wood-fiber pots in sandy loam and covered with soil. […]

Lolium multiflorum [7] = assay: Herbicidal pre-emergence action, LOLMU; conditions: 320 g/ha
Source text: as §6, §7, §8, §9

Sorghum halepense = assay: Herbicidal post-emergence action, SORHA; conditions: 80 g/ha
Procedure: as §2, §3, §4, §5

Triticum aestivum = assay: Herbicidal post-emergence action, TRZAS; conditions: 80 g/ha
Source text: as §4, §5

Veronica persica [8] = assay: Herbicidal post-emergence action, VERPE; conditions: 80 g/ha
Source text: as §1

CCc1cc(Cl)cc(OC)c1C1=C(OC(=O)C(C)(C)C)C2(CCC(OC)CC2)NC1=O (stereo not drawn)
inhibition at 320 g/ha (Avena sativa): 0%
inhibition at 320 g/ha (Amaranthus retroflexus): 0%
inhibition at 320 g/ha (Sinapis alba): 0%
inhibition at 320 g/ha (Lolium multiflorum [1]; Lolium multiflorum, post-emergence, 320 g/ha): 0%
inhibition at 320 g/ha (Stellaria media): 0%
inhibition at 320 g/ha (Setaria viridis [2]; Setaria viridis, post-emergence, 320 g/ha): 0%

CCOC(=O)OC1=C(c2c(C)cc(C)cc2C)C(=O)NC12CCC(COC)CC2 (stereo not drawn) [I-1-c-16 known from WO 07/048545]
inhibition at 500 g/ha (Spodoptera frugiperda): 67%
inhibition at 20 g/ha (Liriomyza trifolii): 0%
inhibition at 20 g/ha (Tetranychus urticae): 0%
inhibition at 20 g/ha (Bemisia tabaci): 27%

CCc1cc(Cl)cc(Cl)c1C1=C(OC(=O)C(C)(C)C)NC2(CCC(C)CC2)C1=O (stereo not drawn) [I-a-4]
% Activity ZEAMX (Zea mays): 100%
% Activity SETVI (Setaria viridis [3]): 90%
% Activity ALOMY (Alopecurus myosuroides): 100%
% Activity AVEFA (Avena fatua [4]): 100%
% Activity DIGSA (Digitaria sanguinalis): 100%
% Activity CHEAL (Chenopodium album): 50%
% Activity VIOTR (Viola tricolor): 70%
% Activity ECHCG (Echinocloa crus-galli): 100%
% Activity ORYSA (Oryza sativa): 100%
% Activity LOLMU (Lolium multiflorum [1]; 80 g/ha): 100%
% Activity VERPE (Veronica persica [5]): 40%
% Activity AVEFA (Avena fatua [6]): 50%
% Activity LOLMU (Lolium multiflorum [7]): 100%
% Activity SORHA (Sorghum halepense): 100%
% Activity TRZAS (Triticum aestivum): 100%
% Activity SETVI (Setaria viridis [2]; 80 g/ha): 100%
% Activity VERPE (Veronica persica [8]): 60%
